Results on five compounds are retold here after patent publication US20230312551A1, “SALT OF 2-(SUBSTITUTED PYRIMIDINYL) THIAZOLE CARBOXAMIDE COMPOUND, AND COMPOSITION AND USE THEREOF” (SUNSHINE LAKE PHARMA CO., LTD., priority 2020, published 2023).

Each structure is given as a SMILES string.

Data set [1] is described as follows: Stability test experiment A: suspended and stirred in water, XRPD. It counts as physicochemical. To be noted: for Crystal form (XRPD) after stirring in water: suspended and stirred in water at room temperature for 24 h. As for the experimental part:
At room temperature, the test samples (50 mg) were added into EP tubes, water (1 mL) was added respectively. The mixture was suspended and stirred at room temperature for 24 h, then suction filtered, and dried for X-ray powder diffraction (XRPD) analysis and identification. Among them, the experimental results of phosphate crystal form A, phosphate crystal form B, phosphate crystal form C, phosphate crystal form G and phosphate crystal form H are shown in FIGS. 20-24.

A short description of data set [2]: Stability test experiment C: storage in PE bag and aluminum foil. The data set is classed as physicochemical. As to conditions: for Purity: HPLC. Here is the method:
1.0 g of the test samples were packaged in a single-layer PE bag and aluminum foil, and fasten with cable ties. 6 packs were prepared in total and put in a stable box (40° C. ± 2° C., RH 75% ± 5%, or 25° C. ± 2° C., RH 60% ± 10%). Test samples were taken at 0, 3, and 6 months for HPLC and XRPD detection, respectively.

The next data set in a line: Hygroscopicity test. It counts as physicochemical. To be noted: 25° C. ± 1° C., RH 80% ± 2%, 24 hours. As for the experimental part:
1) A dry stoppered glass weighing bottle was placed in a suitable constant temperature desiccator (RH 80% ± 2%) at 25° C. + 1° C. the day before, and accurately weighed (m1).
2) An appropriate amount of the test sample was taken and spread in the above weighing bottle. The thickness of the test sample was generally about 1 mm, and it was precisely weighed (m2).
3) The weighing bottle was opened and placed together with the bottle cap under the above constant temperature and humidity conditions for 24 hours.
4) The weighing bottle was closed with the bottle cap, and accurately weighed (m3). Calculate: weight gain % = (m3-m2) / (m2-m1) × 100%.
5) Judgment of hygroscopicity results (Chinese Pharmacopoeia 2015 Edition Appendix 9103 Guidelines for the hygroscopicity test of drugs, experimental conditions: 25° C.±1° C., 80%±2% relative humidity): […]

Data set [3] in a line: Stability test experiment B: high temperature, high humidity and light tests. It counts as physicochemical. To be noted: for Purity: HPLC. Here is the method:
(1) High temperature test: the test samples were taken into the flat weighing bottle, spread into a thin layer of ≤ 5 mm thick, and stored for 30 days at a humidity of 75% ± 5%, 40° C. ± 2° C. and/or 60° C. ± 2° C. On the 5th, 10th, and 30th days, samples were taken for detection according to the key stability inspection items: the color change of the sample was observed, the purity of the sample was determined by HPLC, and the crystal structure of the sample was determined by XRPD.
(2) High humidity test: the test samples were taken into the flat weighing bottle, spread into a thin layer of ≤ 5 mm thick, and stored for 30 days at 25° C., RH 90% ± 5% and/or RH 75% ± 5%. On the 5th, 10th, and 30th days, samples were taken for detection according to the key stability inspection items: the color change of the sample was observed, the purity of the sample was determined by HPLC, and the crystal structure of the sample was determined by XRPD.
(3) Light test: the test samples were taken into the flat weighing bottle, spread into a thin layer of ≤ 5 mm thick, and placed in a light box (with an ultraviolet lamp) with an open mouth. The test samples were stored under the condition of illuminance of 4500 ± 5001x and ultraviolet light ≥ 0.7w/m^2 for 30 days. Samples were taken on the 5th, 10th and 30th days. The color change of the sample was observed, the purity of the sample was determined by HPLC, and the crystal structure of the sample was determined by XRPD.

Data set [4] is described as follows: Pharmacokinetics test in Beagle dogs, oral capsules. It counts as in vivo. To be noted: male Beagle dogs, oral capsule, 5 mg/kg. Here is the method:
The test samples were filled into capsules for oral administration.
Three 8-12 kg male Beagle dogs were taken orally administered capsules containing the test sample at a dose of 5 mg/kg, and blood was collected at time points of 0.25, 0.5, 1.0, 2.0, 4.0, 6.0, 8.0 and 24 h. Standard curve was plotted based on concentrations of the samples in a suitable range, the concentration of the test sample in the plasma sample was measured and quantified by AB SCIEX API4000 LC-MS / MS at MRM mode. Pharmacokinetic parameters were calculated according to drug concentration -time curve using a noncompartmental method by WinNonLin 6.3 software.

Where [5] appears, read: 25° C. ± 2° C., RH 60% ±10%, 3 months.
The mark [6] stands for this setting: 25° C. ± 2° C., RH 60% ±10%, 6 months.
The mark [7] stands for this setting: 40° C. ± 2° C., RH 75% ±5%, 3 months.
Setting [8] is: 40° C. ± 2° C., RH 75% ±5%, 6 months.
Where [9] appears, read: High humidity (25° C., RH 90% ± 5%), 5 days.
The mark [10] stands for this setting: High humidity (25° C., RH 90% ± 5%), 10 days.
The mark [11] stands for this setting: High humidity (25° C., RH 90% ± 5%), 30 days.
Setting [12] is: High temperature (60° C., RH 75%±5%), 5 days.
The mark [13] stands for this setting: High temperature (60° C., RH 75%±5%), 10 days.
[14] abbreviates: High temperature (60° C., RH 75%±5%), 30 days.

In the case of `Cc1nc(-c2cnc(N3CCN(CCCc4c[nH]c5ccc(C#N)cc45)CC3)nc2)sc1C(N)=O` [Example 4, 2-(2-(4-(3-(5-cyano-1H-indol-3-yl)propyl)piperazin-1-yl)pyrimidin-5-yl)-4-methylthiazol-5-carboxamide], the “Crystal form (XRPD) after stirring in water” value (from here on “Crystal form (XRPD)”) in data set [1] (listed as phosphate crystal form C) is given as “crystal form changed”.
Consider `Cc1nc(-c2cnc(N3CCN(CCCc4c[nH]c5ccc(C#N)cc45)CC3)nc2)sc1C(N)=O` [Example 6, 2-(2-(4-(3-(5-cyano-1H-indol-3-yl)propyl)piperazin-1-yl)pyrimidin-5-yl)-4-methylthiazol-5-carboxamide], for which the “Crystal form (XRPD)” value in data set [1] (listed as phosphate crystal form H) is “crystal form changed”.
As to `Cc1nc(-c2cnc(N3CCN(CCCc4c[nH]c5ccc(C#N)cc45)CC3)nc2)sc1C(N)=O` [Example 2, 2-(2-(4-(3-(5-cyano-1H-indol-3-yl)propyl)piperazin-1-yl)pyrimidin-5-yl)-4-methylthiazol-5-carboxamide], the “Crystal structure after stirring in water” value in data set [1] (stirred in water at room temperature or under heating conditions) is “does not change”. Besides, the “Crystal form (XRPD)” value in data set [1] (listed as phosphate crystal form A) was “crystal form did not change”. Moreover, the Outward entry in data set [2] (0 month), in data set [2] (setting [5]), in data set [2] (setting [6]), in data set [2] (setting [7]), in data set [2] (setting [8]) and in data set [3] (0 day) was “Light yellow solid” throughout. Further, the Outward result in data set [3] (setting [9]), in data set [3] (setting [10]), in data set [3] (setting [11]), in data set [3] (setting [12]), in data set [3] (setting [13]) and in data set [3] (setting [14]) was “Light yellow solid” in each case. Further, the Outward entry in data set [3] (Light, 5 days) was “Yellow solid”; in data set [3] (Light, 10 days), “Yellow solid”; in data set [3] (Light, 30 days), “Yellow solid”. In addition, the Purity in data set [2] (0 month) amounted to 99.62%; in data set [2] (setting [5]), 99.63%; in data set [2] (setting [6]) it was 99.64%; in data set [2] (setting [7]) it was 99.63%; in data set [2] (setting [8]), 99.64%; in data set [3] (0 day), 99.24%. Moreover, the Purity in data set [3] (setting [9]) is listed as 99.27%; in data set [3] (setting [10]), 99.21%; in data set [3] (setting [11]), 99.22%; in data set [3] (setting [12]), 99.26%; in data set [3] (setting [13]), 99.23%; in data set [3] (setting [14]) it was 99.24%. The Purity in data set [3] (Light, 5 days) was 99.25%; in data set [3] (Light, 10 days), 99.21%; in data set [3] (Light, 30 days), 99.10%. In addition, in data set [2] (stored up to 6 months at 40° C./RH 75% or 25° C./RH 60% in PE bag and aluminum foil), the “Crystal structure (XRPD)” value is “have not changed”. Besides, the “Conclusion (hygroscopicity feature)” value in the data set “Hygroscopicity test” is reported as “Slightly hygroscopicity (Less than 2% but not less than 0.2%)”. Also, the The hygroscopicity gain in “Hygroscopicity test” was determined as 0.32%. Also, in data set [3] (high temperature (60° C., RH 75% ± 5%), high humidity (25° C., RH 90% ± 5%) or light, 30 days), the XRPD pattern entry is recorded as “basically unchanged”. The Cmax in data set [4] (dog, plasma) worked out at 496 ng/mL. For the same compound, the Tmax in data set [4] (dog, plasma) was determined as 1.67 h. The AUClast in data set [4] is 5240 h^∗ng/ml.
`Cc1nc(-c2cnc(N3CCN(CCCc4c[nH]c5ccc(C#N)cc45)CC3)nc2)sc1C(N)=O` [Example 3, 2-(2-(4-(3-(5-cyano-1H-indol-3-yl)propyl)piperazin-1-yl)pyrimidin-5-yl)-4-methylthiazol-5-carboxamide]: the “Crystal form (XRPD)” value in data set [1] (listed as phosphate crystal form B) was “crystal form changed”.
Regarding `Cc1nc(-c2cnc(N3CCN(CCCc4c[nH]c5ccc(C#N)cc45)CC3)nc2)sc1C(N)=O` [Example 5, 2-(2-(4-(3-(5-cyano-1H-indol-3-yl)propyl)piperazin-1-yl)pyrimidin-5-yl)-4-methylthiazol-5-carboxamide], the “Crystal form (XRPD)” value in data set [1] (listed as phosphate crystal form G) was “crystal form changed”.

By Cmax is commonly meant the highest concentration seen after dosing. By Tmax is commonly meant the time from dosing to the highest level.
